The values below come from ChEMBL document CHEMBL1127867, “5-Membered ring heterocyclic carboxylic acids as angiotensin II antagonists” (Bioorg Med Chem Lett, 1994).

This test concerns the target Angiotensin II receptor (Oryctolagus cuniculus). Put plainly: Tested in vitro for angiotensin II induced antagonistic activity in rabbit aorta, expressed as pA2.
For the compound `CCCc1nc(NCc2ccc(-c3ccccc3-c3nn[nH]n3)cc2)sc1C(=O)O`, the pA2 was < 6.

In the case of `O=C(O)c1cnc(NCc2ccc(-c3ccccc3-c3nn[nH]n3)cc2)s1`, the pA2 is < 6.

In the case of `CCCCN(Cc1ccc(-c2ccccc2-c2nn[nH]n2)cc1)c1c(C(=O)O)ncn1C`, the pA2 is 6.46.

Regarding `CCCCN(Cc1ccc(-c2ccccc2-c2nn[nH]n2)cc1)c1snnc1C(=O)O`, the pA2 worked out at 8.36.

The compound `CCCCN(Cc1ccc(-c2ccccc2-c2nn[nH]n2)cc1)c1scnc1C(=O)O` displayed a pA2 of 8.2.

With `CCCN(Cc1ccc(-c2ccccc2-c2nn[nH]n2)cc1)c1nc(C(F)(F)F)c(C(=O)O)s1`, the pA2 amounted to 7.56.

The compound `CCCCN(Cc1ccc(-c2ccccc2-c2nn[nH]n2)cc1)c1nnn(C)c1C(=O)O` yielded a pA2 of 8.6.

`CCCN(Cc1ccc(-c2ccccc2-c2nn[nH]n2)cc1)c1nc(C)c(C(=O)O)s1` yielded a pA2 of 8.63.

Consider `CCCN(Cc1ccc(-c2ccccc2-c2nn[nH]n2)cc1)c1ncc(C(=O)O)s1`, for which the pA2 is 7.87.

For the compound `CCCc1nc(N(CCC)Cc2ccc(-c3ccccc3-c3nn[nH]n3)cc2)sc1C(=O)O`, the pA2 came out at 7.43.

Compound `CCCN(Cc1ccc(-c2ccccc2-c2nn[nH]n2)cc1)c1nsnc1C(=O)O` gave a pA2 of 9.

As to `CCCCN(Cc1ccc(-c2ccccc2-c2nn[nH]n2)cc1)c1c(C(=O)O)cnn1C`, the pA2 is on record as < 7.

Compound `CCCN(Cc1ccc(-c2ccccc2-c2nn[nH]n2)cc1)c1nn(C)cc1C(=O)O` yielded a pA2 of 7.94.

Compound `CCCCN(Cc1ccc(-c2ccccc2-c2nn[nH]n2)cc1)c1nnn(CCCC)c1C(=O)O` showed a pA2 of 8.86.

In turn, `CCCCCCN(Cc1ccc(-c2ccccc2-c2nn[nH]n2)cc1)c1ncc(C(=O)O)s1` gave a pA2 of 7.34.

Compound `CCCCN(Cc1ccc(-c2ccccc2-c2nn[nH]n2)cc1)c1ncc(C(=O)O)s1` registered a pA2 of 8.8.

In general, pA2 refers to a measure of antagonist potency on a negative log scale.
